Measurements published in paper PMC10745882, “Investigation of Drug-Interaction Potential for Arthritis Dietary Supplements: Chondroitin Sulfate, Glucosamine, and Methylsulfonylmethane” (Molecules, 2023).

Molecular target: T1, CYP3A4(M) (Homo sapiens, UniProt P08684)
T1 construct: Pooled human liver microsomes were purchased from BD Gentest; tissue BD Gentest; host or cells: pooled human liver microsomes
Assay: CYP inhibition assay in human liver microsomes (LC-MS/MS cocktail), midazolam to 1-OH-midazolam
Format: in vitro ADME
Procedure: For the experimental method, the reference method was used. […] The reaction mixture, excluding NGS, underwent pre-incubation at 37 °C for 5 min, followed by further incubation with NGS for 30 min in a water bath. […] Post incubation, the reaction was halted by adding 50 µL ice-cold 1% formic acid acetonitrile. After centrifugation at 13,200 rpm for 5 min, the supernatant was collected from the sample and subjected to analysis via an LC-MS/MS system. All experiments were performed in triplicate.
For the experimental method, the reference method was used. […] The HPLC mobile phases comprised (A) 0.1% formic acid and (B) 0.1% formic acid in 90% acetonitrile. […] The total run time was 11.0 min, and the injection volume was 5 µL. Mass detection was conducted in the positive ion mode using multiple reaction monitoring (MRM). Specific MRM transitions for each analyte are detailed in Table S4.

T1 sequence (P08684 whole entry): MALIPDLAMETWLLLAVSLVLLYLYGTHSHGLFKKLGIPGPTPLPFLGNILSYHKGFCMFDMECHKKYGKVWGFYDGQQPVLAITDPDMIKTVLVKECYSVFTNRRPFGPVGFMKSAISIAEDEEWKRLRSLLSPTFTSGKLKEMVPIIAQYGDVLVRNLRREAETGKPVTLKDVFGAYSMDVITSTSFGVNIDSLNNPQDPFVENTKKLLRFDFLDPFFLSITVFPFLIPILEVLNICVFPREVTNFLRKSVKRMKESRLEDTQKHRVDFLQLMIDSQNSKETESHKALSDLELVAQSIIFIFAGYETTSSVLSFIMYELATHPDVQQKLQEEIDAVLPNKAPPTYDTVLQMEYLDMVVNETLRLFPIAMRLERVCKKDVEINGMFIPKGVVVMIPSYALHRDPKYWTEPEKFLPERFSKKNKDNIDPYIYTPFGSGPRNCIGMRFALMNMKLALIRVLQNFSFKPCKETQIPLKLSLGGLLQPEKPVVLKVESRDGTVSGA

Remaining Activities (% of Control, n = 3) (test substance 0.3 μM): 104.4 ± 13.5 % of Control | Remaining Activities (% of Control, n = 3) (test substance 1 μM): 103.5 ± 3.2 % of Control | Remaining Activities (% of Control, n = 3) (test substance 3 μM): 98.3 ± 1.9 % of Control | Remaining Activities (% of Control, n = 3) (test substance 10 μM): 97.2 ± 1.5 % of Control | Remaining Activities (% of Control, n = 3) (test substance 30 μM): 96.9 ± 6.1 % of Control | Remaining Activities (% of Control, n = 3) (test substance 100 μM): 95.2 ± 8.2 % of Control | Remaining Activities (% of Control, n = 3) (test substance 300 μM): 91.0 ± 3.3 % of Control | Remaining Activities (% of Control, n = 3) (test substance 1000 μM): 88.7 ± 12.1 % of Control
SMILES: N[C@H]1C(O)O[C@H](CO)[C@@H](O)[C@@H]1O (some centres unmarked) [GCS, glucosamine]
